{
  "source": "patent US7410699B2",
  "about": "“Finely particulate composite containing carbon compound encapsulated in a polymer micelle of a block copolymer” (Japan Science and Technology Agency, priority 2003, dated 2008)",
  "origin": "cited, not measured here",
  "conditions": "Journal of Colloid and Interface Science, 263, (2003), 1-3",
  "data": [
    {"smiles": "c12c3c4c5c1c1c6c7c2c2c8c3c3c9c4c4c%10c5c5c1c1c6c6c%11c7c2c2c7c8c3c3c8c9c4c4c9c%10c5c5c1c1c6c6c%11c2c2c7c3c3c8c4c4c9c5c1c1c6c2c3c41", "note": "[fullerene]", "values": [
      {"measurement": "water-solubility (amount of solubilized fullerene)", "result": 21.0, "unit": "µg/mL"}
    ]}
  ]
}
